Tests used:
[1] = target: Mitogen-activated protein kinase kinase kinase kinase 5 (Homo sapiens) (UniProt Q9Y4K4); assay: Selectivity interaction (KinomeScan (DiscoverX)) EUB0000229b MAP4K5; conditions: at 10 µM
[2] = target: Serine/threonine-protein kinase 38 (Homo sapiens) (UniProt Q15208); assay: Selectivity interaction (KinomeScan (DiscoverX)) EUB0000655a STK38; conditions: at 10 µM
[3] = target: T1, Dual specificity tyrosine-phosphorylation-regulated kinase 4 (Homo sapiens) (UniProt Q9NR20); assay: Selectivity interaction (ProQinase) EUB0000171b DYRK4
T1 sequence (whole entry): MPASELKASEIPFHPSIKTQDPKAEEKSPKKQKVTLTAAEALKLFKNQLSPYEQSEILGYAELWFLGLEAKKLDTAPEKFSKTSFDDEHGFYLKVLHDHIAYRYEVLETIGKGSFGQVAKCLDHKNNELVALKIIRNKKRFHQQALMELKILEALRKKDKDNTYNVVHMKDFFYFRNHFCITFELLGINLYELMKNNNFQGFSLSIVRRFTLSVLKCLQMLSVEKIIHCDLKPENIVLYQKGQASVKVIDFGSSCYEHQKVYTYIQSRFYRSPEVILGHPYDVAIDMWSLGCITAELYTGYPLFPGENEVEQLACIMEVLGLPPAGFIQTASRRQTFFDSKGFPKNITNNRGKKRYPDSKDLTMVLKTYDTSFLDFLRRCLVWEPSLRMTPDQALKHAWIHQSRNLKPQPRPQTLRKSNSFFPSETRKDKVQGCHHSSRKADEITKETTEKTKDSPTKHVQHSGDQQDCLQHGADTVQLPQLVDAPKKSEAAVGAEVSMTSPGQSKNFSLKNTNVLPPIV

[4] = target: G protein-coupled receptor kinase 6 (Homo sapiens) (UniProt P43250); assay: Selectivity interaction (ProQinase) EUB0000171b GRK6
G protein-coupled receptor kinase 6 (Homo sapiens), sequence (P43250 whole entry, looked up): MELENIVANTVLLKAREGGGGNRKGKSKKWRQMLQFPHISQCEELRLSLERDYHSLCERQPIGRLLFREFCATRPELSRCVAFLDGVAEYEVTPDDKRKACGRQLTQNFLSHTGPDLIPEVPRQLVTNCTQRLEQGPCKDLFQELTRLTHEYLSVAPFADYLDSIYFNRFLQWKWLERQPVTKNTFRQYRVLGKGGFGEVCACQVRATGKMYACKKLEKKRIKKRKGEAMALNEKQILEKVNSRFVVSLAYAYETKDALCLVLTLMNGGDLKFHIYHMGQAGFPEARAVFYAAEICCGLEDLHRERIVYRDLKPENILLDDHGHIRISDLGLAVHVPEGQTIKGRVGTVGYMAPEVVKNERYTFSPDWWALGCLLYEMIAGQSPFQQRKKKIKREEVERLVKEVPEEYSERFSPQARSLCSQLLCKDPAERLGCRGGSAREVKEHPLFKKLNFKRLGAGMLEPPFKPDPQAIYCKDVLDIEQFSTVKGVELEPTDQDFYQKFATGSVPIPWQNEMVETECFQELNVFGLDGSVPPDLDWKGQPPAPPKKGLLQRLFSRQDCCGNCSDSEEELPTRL

[5] = target: T2, Serine/threonine-protein kinase 4 (Homo sapiens) (UniProt Q13043); assay: Selectivity interaction (KinomeScan (DiscoverX)) EUB0001079a STK4; conditions: at 1 µM
T2 sequence (whole entry): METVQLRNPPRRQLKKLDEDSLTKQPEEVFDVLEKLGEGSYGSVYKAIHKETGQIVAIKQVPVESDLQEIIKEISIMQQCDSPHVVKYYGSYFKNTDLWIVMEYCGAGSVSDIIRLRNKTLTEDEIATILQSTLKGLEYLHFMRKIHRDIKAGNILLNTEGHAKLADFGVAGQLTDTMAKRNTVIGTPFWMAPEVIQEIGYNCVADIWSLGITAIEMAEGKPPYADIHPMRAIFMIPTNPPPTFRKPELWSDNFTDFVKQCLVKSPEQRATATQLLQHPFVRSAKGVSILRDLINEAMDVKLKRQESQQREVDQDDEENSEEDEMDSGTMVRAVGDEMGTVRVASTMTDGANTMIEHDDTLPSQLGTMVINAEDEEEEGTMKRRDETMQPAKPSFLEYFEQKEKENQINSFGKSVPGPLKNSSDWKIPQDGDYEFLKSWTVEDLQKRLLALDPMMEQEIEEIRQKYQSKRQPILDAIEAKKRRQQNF

[6] = target: Glycogen synthase kinase-3 beta (Homo sapiens, UniProt P49841); assay: Selectivity interaction (KinomeScan (DiscoverX)) EUB0000666a GSK3B; conditions: at 10 µM
Glycogen synthase kinase-3 beta, sequence (P49841 whole entry, looked up): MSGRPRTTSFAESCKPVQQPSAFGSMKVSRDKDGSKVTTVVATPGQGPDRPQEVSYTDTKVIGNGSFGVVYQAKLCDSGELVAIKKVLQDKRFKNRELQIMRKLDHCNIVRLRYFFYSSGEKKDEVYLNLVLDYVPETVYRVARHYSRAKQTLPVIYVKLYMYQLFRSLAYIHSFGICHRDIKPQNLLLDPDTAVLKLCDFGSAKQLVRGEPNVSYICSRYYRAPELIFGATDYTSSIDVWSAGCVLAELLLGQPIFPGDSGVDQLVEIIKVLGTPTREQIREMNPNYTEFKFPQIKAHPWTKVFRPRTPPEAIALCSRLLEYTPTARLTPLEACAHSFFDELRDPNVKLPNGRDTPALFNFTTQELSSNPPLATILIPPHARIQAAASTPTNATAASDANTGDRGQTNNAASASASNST

[7] = target: Vascular endothelial growth factor receptor 3 (Homo sapiens, UniProt P35916); assay: Selectivity interaction (Kinase panel (Z-LYTE Assay)) EUB0001632a FLT4; conditions: at 10 µM
Vascular endothelial growth factor receptor 3, sequence (P35916 whole entry): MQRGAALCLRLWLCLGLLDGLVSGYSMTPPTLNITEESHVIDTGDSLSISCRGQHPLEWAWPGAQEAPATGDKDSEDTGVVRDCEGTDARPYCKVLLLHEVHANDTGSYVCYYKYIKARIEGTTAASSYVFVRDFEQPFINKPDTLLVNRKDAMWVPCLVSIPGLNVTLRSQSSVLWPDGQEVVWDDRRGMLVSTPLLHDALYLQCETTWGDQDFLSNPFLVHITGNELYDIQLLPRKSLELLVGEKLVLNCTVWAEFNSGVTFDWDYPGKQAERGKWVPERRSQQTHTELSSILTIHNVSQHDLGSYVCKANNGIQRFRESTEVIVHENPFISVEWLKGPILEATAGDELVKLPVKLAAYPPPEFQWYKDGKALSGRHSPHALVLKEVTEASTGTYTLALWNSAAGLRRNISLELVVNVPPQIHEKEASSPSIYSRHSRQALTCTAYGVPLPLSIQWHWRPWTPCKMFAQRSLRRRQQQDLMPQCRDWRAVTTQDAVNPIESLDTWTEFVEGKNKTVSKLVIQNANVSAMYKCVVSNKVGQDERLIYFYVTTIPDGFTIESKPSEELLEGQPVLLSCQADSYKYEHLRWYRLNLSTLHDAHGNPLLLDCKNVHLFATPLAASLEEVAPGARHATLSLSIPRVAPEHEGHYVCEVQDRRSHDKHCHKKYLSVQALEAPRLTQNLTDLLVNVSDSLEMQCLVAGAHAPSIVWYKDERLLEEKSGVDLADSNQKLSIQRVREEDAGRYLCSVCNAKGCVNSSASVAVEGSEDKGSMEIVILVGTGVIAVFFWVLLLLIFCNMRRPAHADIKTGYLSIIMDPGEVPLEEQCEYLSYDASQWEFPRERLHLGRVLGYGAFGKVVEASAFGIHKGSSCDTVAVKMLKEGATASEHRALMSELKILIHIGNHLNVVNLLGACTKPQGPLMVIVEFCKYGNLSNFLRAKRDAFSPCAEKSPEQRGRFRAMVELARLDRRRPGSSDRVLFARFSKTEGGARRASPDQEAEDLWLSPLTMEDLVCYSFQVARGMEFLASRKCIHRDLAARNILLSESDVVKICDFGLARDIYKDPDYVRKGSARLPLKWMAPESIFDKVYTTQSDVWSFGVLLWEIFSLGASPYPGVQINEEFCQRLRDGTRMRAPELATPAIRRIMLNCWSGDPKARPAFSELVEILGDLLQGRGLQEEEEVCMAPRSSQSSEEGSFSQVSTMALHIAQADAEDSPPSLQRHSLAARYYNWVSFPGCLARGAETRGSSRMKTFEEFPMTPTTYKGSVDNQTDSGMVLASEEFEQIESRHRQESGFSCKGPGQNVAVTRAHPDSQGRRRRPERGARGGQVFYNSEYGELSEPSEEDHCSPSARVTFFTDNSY

[8] = target: Mitogen-activated protein kinase kinase kinase 20 (Homo sapiens) (UniProt Q9NYL2); assay: Selectivity interaction (LanthaScreen Eu Kinase Binding Assay) EUB0001632a MAP3K20; conditions: at 10 µM
[9] = target: 5'-AMP-activated protein kinase catalytic subunit alpha-1 (Homo sapiens, UniProt Q13131); assay: Selectivity interaction (ActivX KiNativ screen (kinase selectivity in THP-1 cell lysates)) EUB0000639a PRKAA1; assay type: subcellular; conditions: lysate, at 0.04 µM
[10] = target: Serine/threonine-protein kinase 35 (Homo sapiens) (UniProt Q8TDR2); assay: Selectivity interaction (KinomeScan (DiscoverX)) EUB0000607a STK35; conditions: at 10 µM
[11] = target: NT-3 growth factor receptor (Homo sapiens, UniProt Q16288); assay: Selectivity interaction (KinomeScan (DiscoverX)) EUB0001049a NTRK3; conditions: at 1 µM
NT-3 growth factor receptor, sequence (Q16288 32-839 limits assumed): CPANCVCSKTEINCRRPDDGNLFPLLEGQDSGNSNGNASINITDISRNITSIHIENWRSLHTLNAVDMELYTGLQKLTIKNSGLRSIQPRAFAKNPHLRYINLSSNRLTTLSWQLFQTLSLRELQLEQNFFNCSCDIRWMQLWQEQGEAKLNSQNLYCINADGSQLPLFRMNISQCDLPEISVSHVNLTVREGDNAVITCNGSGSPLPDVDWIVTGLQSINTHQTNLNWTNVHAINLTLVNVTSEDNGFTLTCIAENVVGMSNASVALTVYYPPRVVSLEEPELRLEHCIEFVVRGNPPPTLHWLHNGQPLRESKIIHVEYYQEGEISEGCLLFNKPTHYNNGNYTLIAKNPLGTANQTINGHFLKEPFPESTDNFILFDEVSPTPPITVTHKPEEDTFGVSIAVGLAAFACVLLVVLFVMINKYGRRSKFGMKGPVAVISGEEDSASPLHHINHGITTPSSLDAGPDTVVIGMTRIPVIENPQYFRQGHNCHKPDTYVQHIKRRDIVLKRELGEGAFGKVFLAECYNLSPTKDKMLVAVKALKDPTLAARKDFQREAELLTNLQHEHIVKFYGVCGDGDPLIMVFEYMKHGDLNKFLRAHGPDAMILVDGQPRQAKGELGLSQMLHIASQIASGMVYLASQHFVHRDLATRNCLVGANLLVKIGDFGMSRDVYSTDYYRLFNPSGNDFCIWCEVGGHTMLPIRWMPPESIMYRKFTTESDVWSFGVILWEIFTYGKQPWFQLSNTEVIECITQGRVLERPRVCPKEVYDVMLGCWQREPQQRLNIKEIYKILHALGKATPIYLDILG

[12] = target: Mitogen-activated protein kinase 10 (Homo sapiens, UniProt P53779); assay: Selectivity interaction (KinomeScan (DiscoverX)) EUB0000695a MAPK10; conditions: at 100 nM
[13] = target: T3, TGF-beta receptor type-1 (Homo sapiens) (UniProt P36897); assay: Selectivity interaction (KinomeScan (DiscoverX)) EUB0000595a TGFBR1; conditions: at 10 µM
T3 sequence (whole entry): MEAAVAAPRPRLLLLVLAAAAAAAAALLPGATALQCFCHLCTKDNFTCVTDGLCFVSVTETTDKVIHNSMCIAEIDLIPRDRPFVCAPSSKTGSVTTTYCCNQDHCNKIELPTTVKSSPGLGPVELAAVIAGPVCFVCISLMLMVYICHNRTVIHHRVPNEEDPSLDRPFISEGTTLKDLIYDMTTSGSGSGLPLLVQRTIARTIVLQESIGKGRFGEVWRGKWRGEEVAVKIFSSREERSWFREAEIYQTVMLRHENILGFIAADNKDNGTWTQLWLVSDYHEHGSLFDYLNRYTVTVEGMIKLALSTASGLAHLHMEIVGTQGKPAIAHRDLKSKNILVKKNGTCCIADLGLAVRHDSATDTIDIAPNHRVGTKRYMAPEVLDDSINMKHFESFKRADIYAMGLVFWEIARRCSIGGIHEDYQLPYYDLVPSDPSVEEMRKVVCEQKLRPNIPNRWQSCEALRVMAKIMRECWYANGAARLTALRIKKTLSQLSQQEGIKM

[14] = target: Serine/threonine-protein kinase Nek4 (Homo sapiens) (UniProt P51957); assay: Selectivity interaction (Kinase panel (Eurofins)) EUB0001564a NEK4; conditions: at 1 µM
[15] = target: Insulin-like growth factor 1 receptor (Homo sapiens, UniProt P08069); assay: Selectivity interaction (Ambit KINOMEscan and KiNATiv profiling in Jurkat cells) EUB0000090b IGF1R; assay type: cell-based; conditions: at 1 µM
Insulin-like growth factor 1 receptor, sequence (P08069 31-736 limits assumed): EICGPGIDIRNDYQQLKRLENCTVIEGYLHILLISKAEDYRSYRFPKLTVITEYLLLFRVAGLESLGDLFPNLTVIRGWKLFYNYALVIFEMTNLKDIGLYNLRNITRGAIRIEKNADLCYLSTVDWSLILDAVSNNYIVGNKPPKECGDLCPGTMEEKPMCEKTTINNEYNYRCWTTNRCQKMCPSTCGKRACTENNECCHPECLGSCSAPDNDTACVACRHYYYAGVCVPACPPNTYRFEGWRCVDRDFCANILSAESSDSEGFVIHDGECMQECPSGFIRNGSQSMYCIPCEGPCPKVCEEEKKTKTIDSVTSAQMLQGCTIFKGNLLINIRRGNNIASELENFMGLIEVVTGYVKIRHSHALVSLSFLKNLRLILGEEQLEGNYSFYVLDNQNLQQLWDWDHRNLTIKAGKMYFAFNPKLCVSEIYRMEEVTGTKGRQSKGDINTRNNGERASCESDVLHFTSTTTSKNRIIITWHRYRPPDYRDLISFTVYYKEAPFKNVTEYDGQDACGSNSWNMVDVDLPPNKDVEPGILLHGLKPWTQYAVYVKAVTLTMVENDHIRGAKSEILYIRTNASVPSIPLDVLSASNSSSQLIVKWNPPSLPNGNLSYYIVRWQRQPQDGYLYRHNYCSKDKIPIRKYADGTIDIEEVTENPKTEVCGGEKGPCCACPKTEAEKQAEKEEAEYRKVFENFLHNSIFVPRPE
Insulin-like growth factor 1 receptor, sequence (P08069 741-1367 limits assumed): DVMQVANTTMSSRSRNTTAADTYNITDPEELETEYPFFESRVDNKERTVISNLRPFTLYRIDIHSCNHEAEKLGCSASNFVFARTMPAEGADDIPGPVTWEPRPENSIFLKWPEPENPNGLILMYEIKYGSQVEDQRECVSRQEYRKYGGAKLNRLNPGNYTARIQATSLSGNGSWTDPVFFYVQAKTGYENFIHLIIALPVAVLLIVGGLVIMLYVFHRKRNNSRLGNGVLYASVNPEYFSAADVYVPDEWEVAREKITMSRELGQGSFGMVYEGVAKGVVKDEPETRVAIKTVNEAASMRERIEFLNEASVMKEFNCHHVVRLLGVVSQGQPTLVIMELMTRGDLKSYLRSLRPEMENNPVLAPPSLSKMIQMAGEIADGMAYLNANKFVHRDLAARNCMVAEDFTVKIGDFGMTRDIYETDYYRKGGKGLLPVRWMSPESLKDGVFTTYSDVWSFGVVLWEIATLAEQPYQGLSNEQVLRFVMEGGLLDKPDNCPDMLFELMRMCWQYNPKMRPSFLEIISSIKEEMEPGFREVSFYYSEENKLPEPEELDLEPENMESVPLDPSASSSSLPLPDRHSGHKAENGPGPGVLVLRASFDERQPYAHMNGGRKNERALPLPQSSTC

[16] = target: Tyrosine-protein kinase Yes (Homo sapiens) (UniProt P07947); assay: Selectivity interaction (ActivX KiNativ screen (ex vivo kinase selectivity in human PBMCs)) EUB0001619a YES1; assay type: cell-based; conditions: PBMC, at 1 µM
Tyrosine-protein kinase Yes (Homo sapiens), sequence (P07947 2-543 limits assumed): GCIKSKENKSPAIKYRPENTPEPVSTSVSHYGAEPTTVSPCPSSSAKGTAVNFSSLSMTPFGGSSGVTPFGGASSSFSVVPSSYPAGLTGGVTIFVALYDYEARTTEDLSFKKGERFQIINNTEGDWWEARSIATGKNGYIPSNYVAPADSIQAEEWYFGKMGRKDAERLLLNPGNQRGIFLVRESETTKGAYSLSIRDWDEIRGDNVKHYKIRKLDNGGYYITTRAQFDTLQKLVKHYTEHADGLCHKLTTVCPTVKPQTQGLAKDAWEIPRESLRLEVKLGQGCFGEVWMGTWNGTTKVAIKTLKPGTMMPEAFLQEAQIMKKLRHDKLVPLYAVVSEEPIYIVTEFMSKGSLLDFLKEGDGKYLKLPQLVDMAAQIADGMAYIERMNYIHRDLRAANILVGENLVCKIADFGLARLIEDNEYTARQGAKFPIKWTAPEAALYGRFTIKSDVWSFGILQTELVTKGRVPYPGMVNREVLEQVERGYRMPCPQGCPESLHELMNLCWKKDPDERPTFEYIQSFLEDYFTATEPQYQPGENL

Compound: COc1cc(N(C)c2ccnc3ccc(C(F)(F)F)cc23)cc(OC)c1OC
- % binding [1]: 97%

Compound: CN(C)CCOc1ccc(-c2nc(-c3ccncc3)c(-c3ccc4c(c3)CC/C4=N\O)[nH]2)cc1
- % of control [2]: 90%

Compound: C=CC(=O)Nc1cccc(C(=O)Nc2ccc(Nc3cc(-c4[nH]c(SC)nc4C)ccn3)cc2)c1
- % of control ([3]; at 1 µM): 90%
- % of control ([3]; at 5 µM): 84%
- % of control ([4]; at 1 µM): 88%
- % of control ([4]; at 5 µM): 90%

Compound: Nc1cnc(N2CCc3cc(S(=O)(=O)Nc4c(F)cc(Cl)cc4F)cc(N4CCCC4=O)c32)nc1 [TP-020n]
- % of control [5]: 100%

Compound: O=C(NOC[C@H](O)CO)c1ccc(F)c(F)c1Nc1ccc(I)cc1F
- % of control [6]: 68%

Compound: Cn1cc(-n2cnc3c(NCc4nc5cc(Cl)c(Cl)cc5[nH]4)nc(N4CCOCC4)nc32)cn1
- % of control [7]: 11.7%
- % of inhibition [8]: -9.9%

Compound: CC[C@@H]1[C@H](F)C(=O)N[C@@H]1COc1nccc2cc(C(N)=O)c(OC)cc12 [ZIMLOVISERTIB]
- % of inhibition [9]: 4.2%

Compound: CNC(=O)Nc1ccc(-c2nc(N3CC4CCC(C3)O4)c3cnn(C4CCC5(CC4)OCCO5)c3n2)cc1
- % of control [10]: 95%

Compound: COc1cc(Nc2nc(C)cc(-c3cnn4nc(OC)ccc34)n2)cc(C(F)(F)F)c1
- % of control [11]: 84%

Compound: Cc1cc(F)c(C(=O)Nc2cccc(-c3nncn3C(C)C)n2)cc1-n1cnc(C2CC2)c1
- % of control [12]: 71%

Compound: COCC(=O)NC/C=C/c1ccc2ncnc(Nc3ccc(Oc4ccc(C)nc4)c(C)c3)c2c1 [CP-724714]
- % of control [13]: 100%

Compound: CC[C@@H](Nc1c(C#N)c(-c2ccc(-c3cccc(C)c3F)cc2)nc2cnccc12)C(=O)O [BAY-091]
- % of inhibition [14]: 32.1%

Compound: CN(C)C/C=C/C(=O)Nc1ccc(C(=O)N2CCCC(Nc3ncc(Cl)c(-c4c[nH]c5ccccc45)n3)C2)cc1 (stereo not drawn)
- % of control [15]: 91%

Compound: N#Cc1cccc(-c2c[nH]c3ncnc(N4CCOCC4)c23)c1
- % of inhibition [16]: -9%
